Data reported in patent US10799507B2, “5-(7H-pyrrolo[2,3-d]pyrimidin-4-yl)-5-azaspiro[2.5]octane-8-carboxylic acid derivatives as novel JAK kinase inhibitors” (LEO Pharma A/S, priority 2017, dated 2020).
pEC50: −log10 of the molar value.

Assays:
[1] = in vitro metabolic stability in human liver microsomes; assay type: in vitro ADME; settings: human, liver microsomes, 0.5 μM compound, 0.5 mg/mL microsomes, NADPH, 40 min, 37° C.; read-out: Human liver microsome Clapp (apparent intrinsic clearance)
Experimental: To assess the in vitro metabolic stability, the compounds (0.5 μM) were incubated in duplicates with human liver microsomes (0.5 mg/mL) in phosphate buffer and NADPH, in 96-well plates for 40 min (37° C.), using a liquid handling robot (Hamilton Microlab Star). Sample aliquots were taken at 0, 5, 10, 20 and 40 min, and dispensed into cold acetonitrile, in order to stop the reactions. The plates were centrifuged for 30 minutes before the samples were analyzed using liquid chromatography coupled to a time-of-flight mass spectrometer (AB Sciex API5600). The compound depletion over time was used to estimate the elimination rate constant, from which the apparent intrinsic clearance, Clapp, was calculated and the values are listed in Table 2.

TYK2 = TYK2 (Homo sapiens (Human), UniProt P29597); assay: JAK kinase assay (HTRF), TYK2; assay type: biochemical; settings: catalytic domain, ATP at Km (13 μM)
Chain of TYK2 (P29597 871-1187): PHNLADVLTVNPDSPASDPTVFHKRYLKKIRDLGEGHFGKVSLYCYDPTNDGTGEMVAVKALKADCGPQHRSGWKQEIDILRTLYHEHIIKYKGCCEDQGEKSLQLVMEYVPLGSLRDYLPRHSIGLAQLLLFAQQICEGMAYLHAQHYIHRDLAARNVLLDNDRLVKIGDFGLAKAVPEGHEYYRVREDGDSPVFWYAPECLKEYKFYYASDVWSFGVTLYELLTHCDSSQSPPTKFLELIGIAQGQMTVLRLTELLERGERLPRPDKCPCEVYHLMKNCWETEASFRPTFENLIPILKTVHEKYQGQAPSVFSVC
Summary of the method: (§1)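 Catalytic-domain human kinases, GST-tagged TYK2 (aa 871-1187) and His-tagged JAK3, phosphorylate 1 μM TK Substrate-Biotin for 20-30 min at RT in 50 mM Hepes pH 7.0, 5 mM MgCl2, ATP at Km (TYK2 13 μM with 50 nM SEB; JAK3 2 μM). Phosphorylation detected by HTRF.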

JAK2 = JAK2 (Homo sapiens (Human), UniProt O60674); assay: JAK kinase assay (HTRF), JAK2; assay type: biochemical; settings: catalytic domain, ATP at Km (4 μM)
Chain of JAK2 (O60674 849-1124): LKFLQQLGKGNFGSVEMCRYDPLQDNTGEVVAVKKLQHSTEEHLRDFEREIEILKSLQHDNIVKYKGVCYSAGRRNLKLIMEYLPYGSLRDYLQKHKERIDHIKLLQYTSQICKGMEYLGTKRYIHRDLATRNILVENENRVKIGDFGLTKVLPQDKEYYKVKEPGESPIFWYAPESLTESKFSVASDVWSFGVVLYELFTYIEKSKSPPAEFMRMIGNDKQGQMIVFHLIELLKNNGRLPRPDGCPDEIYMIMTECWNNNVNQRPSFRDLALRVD
Summary of the method: (§2)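 Catalytic-domain human JAK1 (GST-tagged, aa 850-1154) or His-tagged JAK2, baculovirus-expressed, phosphorylated 1 µM biotinylated TK peptide at Km ATP (JAK1 7 µM, 10 mM MgCl2, 50 nM SEB; JAK2 4 µM, 5 mM MgCl2) in pH 7.0 Hepes, 20-30 min RT. EDTA stop; overnight streptavidin-XL665/cryptate HTRF read.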

JAK1 = JAK1 (Homo sapiens (Human), UniProt P23458); assay: JAK kinase assay (HTRF), JAK1; assay type: biochemical; settings: catalytic domain, ATP at Km (7 μM)
Chain of JAK1 (P23458 850-1154): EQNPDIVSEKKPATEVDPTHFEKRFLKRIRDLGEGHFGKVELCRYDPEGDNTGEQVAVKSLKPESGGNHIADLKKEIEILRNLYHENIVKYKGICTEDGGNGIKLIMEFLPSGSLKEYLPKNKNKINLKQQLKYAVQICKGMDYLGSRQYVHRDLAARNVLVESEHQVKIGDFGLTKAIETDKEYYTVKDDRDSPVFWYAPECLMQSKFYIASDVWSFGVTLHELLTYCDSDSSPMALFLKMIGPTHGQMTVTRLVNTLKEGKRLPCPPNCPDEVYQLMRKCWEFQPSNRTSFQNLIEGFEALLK
Summary of the method: as §2

JAK3 = JAK3 (Homo sapiens (Human), UniProt P52333); assay: JAK kinase assay (HTRF), JAK3; assay type: biochemical; settings: catalytic domain, ATP at Km (2 μM)
Chain of JAK3 (P52333 822-1111): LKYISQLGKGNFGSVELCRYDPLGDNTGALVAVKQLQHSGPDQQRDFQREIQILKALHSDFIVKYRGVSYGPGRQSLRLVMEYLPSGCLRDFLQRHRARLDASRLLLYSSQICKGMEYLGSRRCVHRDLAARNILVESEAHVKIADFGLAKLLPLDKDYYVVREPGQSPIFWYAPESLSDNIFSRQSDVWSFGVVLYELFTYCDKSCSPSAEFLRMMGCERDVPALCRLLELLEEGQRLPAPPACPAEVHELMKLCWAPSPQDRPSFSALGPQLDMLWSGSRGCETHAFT
Summary of the method: as §1

## O=C(N[C@@H](CO)[C@@H](O)c1ccc(F)cc1)[C@H]1CCN(c2ncnc3[nH]ccc23)CC12CC2 [Example 9, (8S)-N-[(1S,2S)-2-(4-fluorophenyl)-2-hydroxy-1-(hydroxymethyl)ethyl]-5-(7H-pyrrolo[2,3-d]pyrimidin-4-yl)-5-azaspiro[2.5]octane-8-carboxamide]
[1]
  CLint scaled at 0.5 μM: > 200 mL/min/kg
TYK2
  pEC50: 8.11
JAK2
  pEC50: 8.80
JAK1
  pEC50: 9.15
JAK3
  pEC50: 8.15

## O=C(NC[C@H](O)C1CCOCC1)[C@H]1CCN(c2ncnc3[nH]ccc23)CC12CC2 [Example 10, (8S)-N-[(2R)-2-hydroxy-2-tetrahydropyran-4-yl-ethyl]-5-(7H-pyrrolo[2,3-d]pyrimidin-4-yl)-5-azaspiro[2.5]octane-8-carboxamide]
[1]
  CLint scaled at 0.5 μM: 28 mL/min/kg
TYK2
  pEC50: 7.97
JAK2
  pEC50: 8.54
JAK1
  pEC50: 9.10
JAK3
  pEC50: 7.93

## O=C(NC[C@H](O)C1CCCC1)[C@H]1CCN(c2ncnc3[nH]ccc23)CC12CC2 [Example 11, (8S)-N-[(2R)-2-cyclopentyl-2-hydroxy-ethyl]-5-(7H-pyrrolo[2,3-d]pyrimidin-4-yl)-5-azaspiro[2.5]octane-8-carboxamide]
[1]
  CLint scaled at 0.5 μM: 148 mL/min/kg
TYK2
  pEC50: 7.74
JAK2
  pEC50: 8.68
JAK1
  pEC50: 9.10
JAK3
  pEC50: 8.17

## O=C(NC[C@@H](O)c1ccc(F)cn1)[C@H]1CCN(c2ncnc3[nH]ccc23)CC12CC2 [Example 12, (8S)-N-[(2R)-2-(5-fluoro-2-pyridyl)-2-hydroxy-ethyl]-5-(7H-pyrrolo[2,3-d]pyrimidin-4-yl)-5-azaspiro[2.5]octane-8-carboxamide]
[1]
  CLint scaled at 0.5 μM: 143 mL/min/kg
TYK2
  pEC50: 7.86
JAK2
  pEC50: 8.40
JAK1
  pEC50: 9.10
JAK3
  pEC50: 7.58

## N#Cc1ccc(CNC(=O)[C@H]2CCN(c3ncnc4[nH]ccc34)CC23CC3)cc1 [Example 13, (8S)-N-[(4-cyanophenyl)methyl]-5-(7H-pyrrolo[2,3-d]pyrimidin-4-yl)-5-azaspiro[2.5]octane-8-carboxamide]
[1]
  CLint scaled at 0.5 μM: 82 mL/min/kg
TYK2
  pEC50: 7.09
JAK2
  pEC50: 8.21
JAK1
  pEC50: 9.05
JAK3
  pEC50: 8.05

## C[C@H](NC(=O)[C@H]1CCN(c2ncnc3[nH]ccc23)CC12CC2)c1ccc(C#N)c(F)c1 [Example 14, (8S)-N-[(1S)-1-(4-cyano-3-fluoro-phenyl)ethyl]-5-(7H-pyrrolo[2,3-d]pyrimidin-4-yl)-5-azaspiro[2.5]octane-8-carboxamide]
[1]
  CLint scaled at 0.5 μM: > 200 mL/min/kg
TYK2
  pEC50: 7.57
JAK2
  pEC50: 8.66
JAK1
  pEC50: 9.05
JAK3
  pEC50: 8.19

## O=C(NC[C@H](O)C1CCCCC1)[C@H]1CCN(c2ncnc3[nH]ccc23)CC12CC2 [Example 15, (8S)-N-[(2R)-2-cyclohexyl-2-hydroxy-ethyl]-5-(7H-pyrrolo[2,3-d]pyrimidin-4-yl)-5-azaspiro[2.5]octane-8-carboxamide]
[1]
  CLint scaled at 0.5 μM: > 200 mL/min/kg
TYK2
  pEC50: 8.13
JAK2
  pEC50: 8.77
JAK1
  pEC50: 9.05
JAK3
  pEC50: 8.43

## N#Cc1ccc(CNC(=O)[C@H]2CCN(c3ncnc4[nH]ccc34)CC23CC3)cc1F [Example 16, (8S)-N-[(4-cyano-3-fluoro-phenyl)methyl]-5-(7H-pyrrolo[2,3-d]pyrimidin-4-yl)-5-azaspiro[2.5]octane-8-carboxamide]
[1]
  CLint scaled at 0.5 μM: 180 mL/min/kg
TYK2
  pEC50: 7.35
JAK2
  pEC50: 8.44
JAK1
  pEC50: 9.00
JAK3
  pEC50: 8.15

## O=C(N[C@@H](CO)c1ccc(F)cc1)[C@H]1CCN(c2ncnc3[nH]ccc23)CC12CC2 [Example 17, (8S)-N-[(1R)-1-(4-fluorophenyl)-2-hydroxy-ethyl]-5-(7H-pyrrolo[2,3-d]pyrimidin-4-yl)-5-azaspiro[2.5]octane-8-carboxamide]
[1]
  CLint scaled at 0.5 μM: 43 mL/min/kg
TYK2
  pEC50: 7.69
JAK2
  pEC50: 8.52
JAK1
  pEC50: 9.00
JAK3
  pEC50: 8.24

## N#Cc1ccc([C@H](CO)NC(=O)[C@H]2CCN(c3ncnc4[nH]ccc34)CC23CC3)cc1 [Example 18, (8S)-N-[(1R)-1-(4-cyanophenyl)-2-hydroxy-ethyl]-5-(7H-pyrrolo[2,3-d]pyrimidin-4-yl)-5-azaspiro[2.5]octane-8-carboxamide]
[1]
  CLint scaled at 0.5 μM: 44 mL/min/kg
TYK2
  pEC50: 7.34
JAK2
  pEC50: 8.46
JAK1
  pEC50: 9.00
JAK3
  pEC50: 8.12

## N#Cc1ccc([C@H](CO)NC(=O)C2CCN(c3ncnc4[nH]ccc34)CC23CC3)cc1 (stereo partly drawn) [Example 19, N-[(1R)-1-(4-cyanophenyl)-2-hydroxy-ethyl]-5-(7H-pyrrolo[2,3-d]pyrimidin-4-yl)-5-azaspiro[2.5]octane-8-carboxamide]
[1]
  CLint scaled at 0.5 μM: 88 mL/min/kg
TYK2
  pEC50: 6.96
JAK2
  pEC50: 8.40
JAK1
  pEC50: 8.96
JAK3
  pEC50: 8.08

## C[C@H](NC(=O)[C@H]1CCN(c2ncnc3[nH]ccc23)CC12CC2)c1ccc(C#N)cc1F [Example 20, (8S)-N-[(1S)-1-(4-cyano-2-fluoro-phenyl)ethyl]-5-(7H-pyrrolo[2,3-d]pyrimidin-4-yl)-5-azaspiro[2.5]octane-8-carboxamide]
[1]
  CLint scaled at 0.5 μM: 161 mL/min/kg
TYK2
  pEC50: 7.29
JAK2
  pEC50: 8.51
JAK1
  pEC50: 8.96
JAK3
  pEC50: 7.75

## C[C@H](NC(=O)C1CCN(c2ncnc3[nH]ccc23)CC12CC2)c1ccc(C#N)cc1 (stereo partly drawn) [Example 21, N-[(1S)-1-(4-cyanophenyl)ethyl]-5-(7H-pyrrolo[2,3-d]pyrimidin-4-yl)-5-azaspiro[2.5]octane-8-carboxamide]
[1]
  CLint scaled at 0.5 μM: 170 mL/min/kg
TYK2
  pEC50: 7.28
JAK2
  pEC50: 8.60
JAK1
  pEC50: 8.96
JAK3
  pEC50: 8.11

## C[C@H](NC(=O)[C@H]1CCN(c2ncnc3[nH]ccc23)CC12CC2)c1ccc(C#N)cc1 [Example 22, (8S)-N-[(1S)-1-(4-cyanophenyl)ethyl]-5-(7H-pyrrolo[2,3-d]pyrimidin-4-yl)-5-azaspiro[2.5]octane-8-carboxamide]
[1]
  CLint scaled at 0.5 μM: 123 mL/min/kg
TYK2
  pEC50: 7.36
JAK2
  pEC50: 8.49
JAK1
  pEC50: 8.92
JAK3
  pEC50: 8.15

## O=C(NCC1(CO)CC(F)(F)C1)[C@H]1CCN(c2ncnc3[nH]ccc23)CC12CC2 [Example 23, (8S)-N-[[3,3-difluoro-1-(hydroxymethyl)cyclobutyl]methyl]-5-(7H-pyrrolo[2,3-d]pyrimidin-4-yl)-5-azaspiro[2.5]octane-8-carboxamide]
[1]
  CLint scaled at 0.5 μM: 40 mL/min/kg
TYK2
  pEC50: 7.70
JAK2
  pEC50: 8.57
JAK1
  pEC50: 8.89
JAK3
  pEC50: 8.17

## O=C(N[C@@H](CO)C1CCCCC1)[C@H]1CCN(c2ncnc3[nH]ccc23)CC12CC2 [Example 24, (8S)-N-[(1R)-1-cyclohexyl-2-hydroxy-ethyl]-5-(7H-pyrrolo[2,3-d]pyrimidin-4-yl)-5-azaspiro[2.5]octane-8-carboxamide]
[1]
  CLint scaled at 0.5 μM: 159 mL/min/kg
TYK2
  pEC50: 7.70
JAK2
  pEC50: 8.57
JAK1
  pEC50: 8.89
JAK3
  pEC50: 7.96

## O=C(NC[C@H](O)C1CCC1)[C@H]1CCN(c2ncnc3[nH]ccc23)CC12CC2 [Example 25, (8S)-N-[(2R)-2-cyclobutyl-2-hydroxy-ethyl]-5-(7H-pyrrolo[2,3-d]pyrimidin-4-yl)-5-azaspiro[2.5]octane-8-carboxamide]
[1]
  CLint scaled at 0.5 μM: 46 mL/min/kg
TYK2
  pEC50: 7.95
JAK2
  pEC50: 8.47
JAK1
  pEC50: 8.89
JAK3
  pEC50: 7.87

## N#Cc1ccc(CNC(=O)C2CCN(c3ncnc4[nH]ccc34)CC23CC3)cc1 (stereo not shown) [Example 26, N-[(4-cyanophenyl)methyl]-5-(7H-pyrrolo[2,3-d]pyrimidin-4-yl)-5-azaspiro[2.5]octane-8-carboxamide]
[1]
  CLint scaled at 0.5 μM: 78 mL/min/kg
TYK2
  pEC50: 6.71
JAK2
  pEC50: 8.19
JAK1
  pEC50: 8.85
JAK3
  pEC50: 7.95

## C[C@](CO)(NC(=O)[C@H]1CCN(c2ncnc3[nH]ccc23)CC12CC2)c1ccc(C#N)cc1 [Example 27, (8S)-N-[(1S)-1-(4-cyanophenyl)-2-hydroxy-1-methyl-ethyl]-5-(7H-pyrrolo[2,3-d]pyrimidin-4-yl)-5-azaspiro[2.5]octane-8-carboxamide]
[1]
  CLint scaled at 0.5 μM: 61 mL/min/kg
TYK2
  pEC50: 7.35
JAK2
  pEC50: 8.49
JAK1
  pEC50: 8.85
JAK3
  pEC50: 8.15

## C[C@@](CO)(NC(=O)[C@H]1CCN(c2ncnc3[nH]ccc23)CC12CC2)c1ccc(C#N)cc1 [Example 28, (8S)-N-[(1R)-1-(4-cyanophenyl)-2-hydroxy-1-methyl-ethyl]-5-(7H-pyrrolo[2,3-d]pyrimidin-4-yl)-5-azaspiro[2.5]octane-8-carboxamide]
[1]
  CLint scaled at 0.5 μM: 132 mL/min/kg
TYK2
  pEC50: 7.25
JAK2
  pEC50: 8.26
JAK1
  pEC50: 8.85
JAK3
  pEC50: 8.01
